Data published in patent US8192962B2, “Processes for detecting toxic substances” (Daikin Industries, Ltd., priority 2001, dated 2012).

System: Metabolism protein genes
Assay: DNA chip mRNA expression in yeast, metabolism protein genes (Table 7)
Type: cell-based, Saccharomyces cerevisiae S288C
Experimental: Yeast (Saccharomyces cerevisiae S288C (α SUC2mal mel gap2 CUP1)) were incubated at 25° C. on YPD medium (yeast extract 1%, polypepton 2%, glucose 2%). One of toxic chemical substances was added to the cells at logarithmic growth phase, and the cells were further incubated for two hours. Cells were cultured without any chemical substance in the same condition, and were used as control. Concentrations of the chemical substances were defined to inhibit the growth of the yeast but not lead to death.
After completion of the incubation, the culture was centrifuged to collect the cells. To the cells, sodium acetate buffer (50 mM sodium acetate, 10 mM EDTA, 1% SDS) was added, and the mixture was shaken at 65° C. for five minutes, followed by returning to room temperature, and obtaining the supernatant, of which the procedures were repeated two times. To the supernatant, ½ amount of a solution of phenol/chloroform was added, and the mixture was centrifuged to give a supernatant, which was added with an equal amount of chloroform, and the mixture was centrifuged to give a supernatant. To the supernatant, an equal amount of isopropanol containing 0.3 M sodium acetate was added, and the mixture was allowed to stand at room temperature for 30 minutes, after which the mixture was centrifuged to give a sediment of the whole RNAs. Seventy % ethanol was added to the sediment, and the mixture was again centrifuged to give a sediment, which was then dried and dissolved in water. mRNA was isolated from the whole RNAs as followings. In view of the fact that a poly A chain is attached to the 3′ terminus of mRNA, a polynucleotide having a poly T structure which was immobilized on the surface of latex beads was used to trap the mRNA, and then the mRNA was washed and eluted with spine column (Oligotex-dT30<Super>mRNA Purification Kit, Takara). Reverse transcription of the mRNA was conducted with a reverse transcriptase (Super Script II Reverse Transcriptase; catalogue No. 18064-014, GibcoBRL) using fluorescence-labeled nucleotides to give cDNAs that were introduced with Cy3-dUTP or Cy5-dUTP during the reverse transcription.
The labeled cDNAs were dissolved in TE buffer (10mM Tris-HCl/1 mM EDTA, pH8.0), and the solution was dropped on the DNA chip containing the whole genes of yeast (DNA Chip Research Inc. Japan) so that the cDNAs were hybridized on the DNA chip at 65° C. for over 12 hours. The fluoresces intensity of the DNA chip was read with a scanner, and the ratio relative to the fluorescence intensity resulting from the absence of chemical substance was estimated as the following, which is shown in Tables 1 to 9: […]

manganese ethylenebis(dithiocarbamate) [(8)]
1.6: The level of expressed mRNA in the presence of chemical substance/The level of expressed mRNA in the absence of chemical substance (yeast gene YOL058W)
0.8: level of expressed mRNA in the presence/in the absence of chemical substance (yeast gene YKL148C) | The level of expressed mRNA in the presence of chemical substance/The level of expressed mRNA in the absence of chemical substance (yeast gene YLR300W) | level of expressed mRNA in the presence/in the absence of chemical substance (yeast gene YMR323W) | The level of expressed mRNA in the presence of chemical substance/The level of expressed mRNA in the absence of chemical substance (yeast gene YNL106C) | The level of expressed mRNA in the presence of chemical substance/The level of expressed mRNA in the absence of chemical substance (yeast gene YNL169C) | level of expressed mRNA in the presence/in the absence of chemical substance (yeast gene YNL192W) | level of expressed mRNA in the presence/in the absence of chemical substance (yeast gene YOL086C) | The level of expressed mRNA in the presence of chemical substance/The level of expressed mRNA in the absence of chemical substance (yeast gene YOR130C) | level of expressed mRNA in the presence/in the absence of chemical substance (yeast gene YOR142W) | The level of expressed mRNA in the presence of chemical substance/The level of expressed mRNA in the absence of chemical substance (yeast gene YOR336W) | The level of expressed mRNA in the presence of chemical substance/The level of expressed mRNA in the absence of chemical substance (yeast gene YOR347C) | level of expressed mRNA in the presence/in the absence of chemical substance (yeast gene YOR348C)
1.8: The level of expressed mRNA in the presence of chemical substance/The level of expressed mRNA in the absence of chemical substance (yeast gene YMR271C) | The level of expressed mRNA in the presence of chemical substance/The level of expressed mRNA in the absence of chemical substance (yeast gene YNL012W)
1.3: The level of expressed mRNA in the presence of chemical substance/The level of expressed mRNA in the absence of chemical substance (yeast gene YKL091C) | The level of expressed mRNA in the presence of chemical substance/The level of expressed mRNA in the absence of chemical substance (yeast gene YLR273C) | The level of expressed mRNA in the presence of chemical substance/The level of expressed mRNA in the absence of chemical substance (yeast gene YML070W) | The level of expressed mRNA in the presence of chemical substance/The level of expressed mRNA in the absence of chemical substance (yeast gene YNR059W) | level of expressed mRNA in the presence/in the absence of chemical substance (yeast gene YOL108C) | level of expressed mRNA in the presence/in the absence of chemical substance (yeast gene YOL116W) | The level of expressed mRNA in the presence of chemical substance/The level of expressed mRNA in the absence of chemical substance (yeast gene YPL017C)
10.6: The level of expressed mRNA in the presence of chemical substance/The level of expressed mRNA in the absence of chemical substance (yeast gene YJR155W)
17.8: The level of expressed mRNA in the presence of chemical substance/The level of expressed mRNA in the absence of chemical substance (yeast gene YOL165C)
1.5: level of expressed mRNA in the presence/in the absence of chemical substance (yeast gene YKR034W) | The level of expressed mRNA in the presence of chemical substance/The level of expressed mRNA in the absence of chemical substance (yeast gene YML054C) | The level of expressed mRNA in the presence of chemical substance/The level of expressed mRNA in the absence of chemical substance (yeast gene YNL231C) | The level of expressed mRNA in the presence of chemical substance/The level of expressed mRNA in the absence of chemical substance (yeast gene YNL332W)
1.1: level of expressed mRNA in the presence/in the absence of chemical substance (yeast gene YKL060C) | The level of expressed mRNA in the presence of chemical substance/The level of expressed mRNA in the absence of chemical substance (yeast gene YKL104C) | level of expressed mRNA in the presence/in the absence of chemical substance (yeast gene YKL157W) | The level of expressed mRNA in the presence of chemical substance/The level of expressed mRNA in the absence of chemical substance (yeast gene YKL213C) | The level of expressed mRNA in the presence of chemical substance/The level of expressed mRNA in the absence of chemical substance (yeast gene YKL215C) | level of expressed mRNA in the presence/in the absence of chemical substance (yeast gene YML022W) | level of expressed mRNA in the presence/in the absence of chemical substance (yeast gene YMR011W) | level of expressed mRNA in the presence/in the absence of chemical substance (yeast gene YMR083W) | The level of expressed mRNA in the presence of chemical substance/The level of expressed mRNA in the absence of chemical substance (yeast gene YMR105C) | The level of expressed mRNA in the presence of chemical substance/The level of expressed mRNA in the absence of chemical substance (yeast gene YNR033W) | level of expressed mRNA in the presence/in the absence of chemical substance (yeast gene YOR251C)
0.9: The level of expressed mRNA in the presence of chemical substance/The level of expressed mRNA in the absence of chemical substance (yeast gene YLL058W) | level of expressed mRNA in the presence/in the absence of chemical substance (yeast gene YLR006C) | level of expressed mRNA in the presence/in the absence of chemical substance (yeast gene YLR056W) | level of expressed mRNA in the presence/in the absence of chemical substance (yeast gene YLR081W) | The level of expressed mRNA in the presence of chemical substance/The level of expressed mRNA in the absence of chemical substance (yeast gene YLR180W) | The level of expressed mRNA in the presence of chemical substance/The level of expressed mRNA in the absence of chemical substance (yeast gene YLR348C) | level of expressed mRNA in the presence/in the absence of chemical substance (yeast gene YLR372W) | The level of expressed mRNA in the presence of chemical substance/The level of expressed mRNA in the absence of chemical substance (yeast gene YNL104C) | The level of expressed mRNA in the presence of chemical substance/The level of expressed mRNA in the absence of chemical substance (yeast gene YOL126C) | level of expressed mRNA in the presence/in the absence of chemical substance (yeast gene YOR002W) | The level of expressed mRNA in the presence of chemical substance/The level of expressed mRNA in the absence of chemical substance (yeast gene YOR099W) | level of expressed mRNA in the presence/in the absence of chemical substance (yeast gene YOR108W) | level of expressed mRNA in the presence/in the absence of chemical substance (yeast gene YOR178C) | level of expressed mRNA in the presence/in the absence of chemical substance (yeast gene YPL028W) | level of expressed mRNA in the presence/in the absence of chemical substance (yeast gene YPL148C) | level of expressed mRNA in the presence/in the absence of chemical substance (yeast gene YPR113W)
0.7: level of expressed mRNA in the presence/in the absence of chemical substance (yeast gene YLR044C) | level of expressed mRNA in the presence/in the absence of chemical substance (yeast gene YLR089C) | The level of expressed mRNA in the presence of chemical substance/The level of expressed mRNA in the absence of chemical substance (yeast gene YML100W) | level of expressed mRNA in the presence/in the absence of chemical substance (yeast gene YMR015C) | level of expressed mRNA in the presence/in the absence of chemical substance (yeast gene YMR205C) | level of expressed mRNA in the presence/in the absence of chemical substance (yeast gene YMR261C) | The level of expressed mRNA in the presence of chemical substance/The level of expressed mRNA in the absence of chemical substance (yeast gene YNL045W) | The level of expressed mRNA in the presence of chemical substance/The level of expressed mRNA in the absence of chemical substance (yeast gene YNL322C) | The level of expressed mRNA in the presence of chemical substance/The level of expressed mRNA in the absence of chemical substance (yeast gene YNR019W) | level of expressed mRNA in the presence/in the absence of chemical substance (yeast gene YOR085W)
13.1: The level of expressed mRNA in the presence of chemical substance/The level of expressed mRNA in the absence of chemical substance (yeast gene YNL331C)
5.5: The level of expressed mRNA in the presence of chemical substance/The level of expressed mRNA in the absence of chemical substance (yeast gene YPR167C)
1.0: The level of expressed mRNA in the presence of chemical substance/The level of expressed mRNA in the absence of chemical substance (yeast gene YKL035W) | The level of expressed mRNA in the presence of chemical substance/The level of expressed mRNA in the absence of chemical substance (yeast gene YKL152C) | The level of expressed mRNA in the presence of chemical substance/The level of expressed mRNA in the absence of chemical substance (yeast gene YLR299W) | level of expressed mRNA in the presence/in the absence of chemical substance (yeast gene YNL025C) | The level of expressed mRNA in the presence of chemical substance/The level of expressed mRNA in the absence of chemical substance (yeast gene YOL153C) | level of expressed mRNA in the presence/in the absence of chemical substance (yeast gene YOL156W) | level of expressed mRNA in the presence/in the absence of chemical substance (yeast gene YOR103C) | level of expressed mRNA in the presence/in the absence of chemical substance (yeast gene YOR176W) | level of expressed mRNA in the presence/in the absence of chemical substance (yeast gene YPL057C) | level of expressed mRNA in the presence/in the absence of chemical substance (yeast gene YPL135W) | The level of expressed mRNA in the presence of chemical substance/The level of expressed mRNA in the absence of chemical substance (yeast gene YPR026W) | level of expressed mRNA in the presence/in the absence of chemical substance (yeast gene YPR165W) | level of expressed mRNA in the presence/in the absence of chemical substance (yeast gene YPR183W)
0.3: level of expressed mRNA in the presence/in the absence of chemical substance (yeast gene YLR058C)
0.4: The level of expressed mRNA in the presence of chemical substance/The level of expressed mRNA in the absence of chemical substance (yeast gene YMR189W)
1.2: level of expressed mRNA in the presence/in the absence of chemical substance (yeast gene YLR284C) | The level of expressed mRNA in the presence of chemical substance/The level of expressed mRNA in the absence of chemical substance (yeast gene YLR307W) | The level of expressed mRNA in the presence of chemical substance/The level of expressed mRNA in the absence of chemical substance (yeast gene YMR020W)
1.4: level of expressed mRNA in the presence/in the absence of chemical substance (yeast gene YLR354C)
0.6: level of expressed mRNA in the presence/in the absence of chemical substance (yeast gene YLR304C) | level of expressed mRNA in the presence/in the absence of chemical substance (yeast gene YOR128C)
0.5: The level of expressed mRNA in the presence of chemical substance/The level of expressed mRNA in the absence of chemical substance (yeast gene YMR008C) | The level of expressed mRNA in the presence of chemical substance/The level of expressed mRNA in the absence of chemical substance (yeast gene YMR296C)
